From the supplement of paper PMC10307832

Tests used:
Experiment in all cases: relative viability (nuclei count vs DMSO), 5 days (fraction); higher = more cells survive
Adavosertib + Pictilisib = compound: C=CCn1c(=O)c2cnc(Nc3ccc(N4CCN(C)CC4)cc3)nc2n1-c1cccc(C(C)(C)O)n1 [Adavosertib] + CS(=O)(=O)N1CCN(Cc2cc3nc(-c4cccc5[nH]ncc45)nc(N4CCOCC4)c3s2)CC1 [Pictilisib] (partner 1 µM)
In short: (§1)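 A single step with final 0.05% Triton X-100, 1% formaldehyde and 1 ug/ml Hoechst fixed the cells and stained nuclei 5 days after treatment. Lung cancer cell lines in 1536-well plates had been treated by pin tool the day after seeding with one drug alone or a fixed anchor-drug dose plus five library-drug doses (not always all listed) in √10 steps, and nuclei were counted on 4× images. Relative viability is the ratio of nuclei in treated wells to nuclei in vehicle wells, taken as the median of duplicate plates.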

Adavosertib + Decitabine = compound: C=CCn1c(=O)c2cnc(Nc3ccc(N4CCN(C)CC4)cc3)nc2n1-c1cccc(C(C)(C)O)n1 [Adavosertib] + Nc1ncn([C@H]2C[C@H](O)[C@@H](CO)O2)c(=O)n1 [Decitabine] (partner 2 µM)
In short: as §1

Nelarabine + Trametinib = compound: COc1nc(N)nc2c1ncn2[C@@H]1O[C@H](CO)[C@@H](O)[C@@H]1O [Nelarabine] + CC(=O)Nc1cccc(-n2c(=O)n(C3CC3)c(=O)c3c(Nc4ccc(I)cc4F)n(C)c(=O)c(C)c32)c1 [Trametinib] (partner 0.02 µM)
In short: as §1

Nelarabine + AZD7762 = compound: COc1nc(N)nc2c1ncn2[C@@H]1O[C@H](CO)[C@@H](O)[C@@H]1O [Nelarabine] + NC(=O)Nc1cc(-c2cccc(F)c2)sc1C(=O)N[C@H]1CCCNC1 [AZD7762] (partner 0.2 µM)
In short: as §1

| Cell Line | relative viability (Adavosertib + Pictilisib; first compound 0.01 µM) | relative viability (Adavosertib + Pictilisib; first compound 0.03162 µM) | relative viability (Adavosertib + Pictilisib; first compound 0.1 µM) | relative viability (Adavosertib + Pictilisib; first compound 0.3162 µM) | relative viability (Adavosertib + Decitabine; first compound 0.01 µM) | relative viability (Adavosertib + Decitabine; first compound 0.03162 µM) | relative viability (Adavosertib + Decitabine; first compound 0.1 µM) | relative viability (Adavosertib + Decitabine; first compound 0.3162 µM) | relative viability (Nelarabine + Trametinib; first compound 0.01 µM) | relative viability (Nelarabine + Trametinib; first compound 0.03162 µM) | relative viability (Nelarabine + Trametinib; first compound 0.1 µM) | relative viability (Nelarabine + Trametinib; first compound 0.3162 µM) | relative viability (Nelarabine + Trametinib; first compound 1 µM) | relative viability (Nelarabine + AZD7762; first compound 0.01 µM) | relative viability (Nelarabine + AZD7762; first compound 0.03162 µM) | relative viability (Nelarabine + AZD7762; first compound 0.1 µM) | relative viability (Nelarabine + AZD7762; first compound 0.3162 µM) | relative viability (Nelarabine + AZD7762; first compound 1 µM) |
| --- | --- | --- | --- | --- | --- | --- | --- | --- | --- | --- | --- | --- | --- | --- | --- | --- | --- | --- |
| NCI-H23 | 0.504 | 0.51 | 0.49 | 0.236 | 0.299 | 0.31 | 0.255 | 0.246 | 0.403 | 0.404 | 0.343 | 0.378 | 0.409 | 0.205 | 0.227 | 0.241 | 0.232 | 0.25 |
| NCI-H322M |  | 0.521 | 0.504 | 0.421 | 0.724 | 0.67 | 0.698 | 0.526 | 0.547 | 0.505 | 0.383 | 0.402 | 0.511 | 0.559 | 0.553 | 0.522 | 0.595 | 0.507 |
| LC-2-ad | 0.455 | 0.587 | 0.424 | 0.37 | 0.696 | 0.733 | 0.87 | 0.889 | 1.09 | 1.01 | 0.922 | 0.993 | 0.899 | 1.01 | 0.96 | 0.859 | 0.908 | 0.856 |
| LOU-NH91 | 0.521 | 0.508 | 0.544 | 0.457 | 0.819 | 0.821 | 0.798 | 0.852 | 0.856 | 0.731 | 0.769 | 0.804 | 0.794 | 0.868 | 0.69 | 0.78 | 0.732 | 0.69 |
| NCI-H1793 | 0.385 | 0.295 | 0.318 | 0.248 | 0.37 | 0.477 | 0.521 | 0.358 | 0.474 |  | 0.421 | 0.424 | 0.466 | 0.557 |  | 0.319 | 0.748 | 0.436 |
| NCI-H3122 | 0.584 | 0.606 | 0.72 | 0.613 | 0.41 | 0.49 | 0.484 | 0.494 | 0.307 | 0.163 |  | 0.23 | 0.237 | 1.24 | 0.769 |  | 0.998 | 0.969 |
| NCI-H1437 | 0.371 | 0.435 | 0.401 | 0.404 | 0.57 | 0.633 | 0.636 | 0.618 | 0.637 | 0.582 | 0.484 | 0.64 | 0.581 | 1.24 | 1.17 | 1.15 | 1.15 | 1.09 |
| NCI-H650 | 0.926 | 1.04 | 1.05 | 0.805 | 0.352 | 0.319 | 0.342 | 0.286 | 1.05 | 0.805 | 0.922 | 1.01 | 1.06 | 0.75 | 0.991 | 0.915 | 0.932 | 0.943 |
| HCC-78 | 0.194 | 0.221 | 0.255 | 0.171 | 0.661 | 0.679 | 0.731 | 0.618 | 1.19 | 0.74 |  | 0.853 | 0.96 | 0.708 | 0.673 |  | 0.764 | 0.564 |
| A-427 | 0.735 | 0.653 | 0.684 | 0.798 | 0.53 | 0.554 | 0.55 | 0.469 | 0.835 | 0.772 | 0.728 | 0.721 | 0.773 | 0.781 | 0.62 | 0.599 | 0.62 | 0.572 |
| HCC-15 | 0.724 | 0.713 | 0.727 | 0.934 | 0.714 | 0.719 | 0.667 | 0.858 | 0.431 | 0.427 | 0.307 | 0.42 | 0.386 | 1.47 | 1.15 | 0.967 | 1.17 | 1.19 |
| EKVX | 0.44 | 0.448 | 0.433 | 0.437 | 0.329 | 0.388 | 0.383 | 0.4 | 0.402 | 0.306 | 0.587 | 0.282 | 0.472 | 0.977 | 0.63 | 0.606 | 0.717 | 0.732 |
| BEN | 0.575 | 0.682 | 0.587 | 0.558 | 0.684 | 0.69 | 0.768 | 0.783 | 1.17 | 0.91 | 1.01 | 1.05 | 1.31 | 0.746 | 0.683 | 0.711 | 0.683 | 0.674 |
| 201T | 0.668 | 0.683 | 0.625 | 0.654 | 0.851 | 0.877 | 0.898 | 0.971 | 0.781 | 0.775 | 0.737 | 0.712 | 0.73 | 0.774 | 0.547 | 0.609 | 0.653 | 0.612 |
| HCC-827 | 0.985 | 1.05 | 1.08 | 0.937 | 0.15 | 0.344 | 0.341 | 0.214 | 0.537 | 0.559 | 0.521 | 0.454 | 0.478 | 0.203 | 0.208 | 0.158 | 0.175 | 0.163 |
| NCI-H2085 | 0.491 | 0.451 | 0.41 | 0.519 | 0.547 | 0.504 | 0.574 | 0.47 | 0.391 | 0.518 | 0.514 | 0.612 | 0.544 | 1.11 | 1.04 | 0.996 | 1.12 | 0.987 |
| NCI-H727 | 0.525 | 0.341 | 0.359 | 0.366 | 0.843 | 0.845 | 0.899 | 0.909 | 0.377 | 0.43 | 0.358 | 0.35 | 0.321 | 0.497 | 0.525 | 0.463 | 0.543 | 0.463 |
